Reference: ChEMBL document CHEMBL1134128, “Rational design of a new series of pronucleotide” (Bioorg Med Chem Lett, 2001)

Tests used:
[1] = Half life in human serum; assay type: ADME, cell-free
[2] = Half life were determined in CEM-SS cell extract in decomposition step 1; assay type: ADME; conditions: human
[3] = Half life in culture medium containing 10% of heat inactivated foetal calf serum; assay type: ADME, cell-free, Bos taurus; conditions: cattle
[4] = Partition coefficient (logP); assay type: physicochemical; conditions: octanol/water
[5] = The pKa value was reported; assay type: physicochemical
[6] = test system: CEM-SS; assay: Cytotoxic concentration to inhibit HIV replication in TK CEM-SS cell line and the value is represented as CC50; assay type: functional; conditions: Homo sapiens
[7] = test system: CEM-SS; assay: Effective concentration to inhibit HIV replication in TK CEM-SS cell line and the value is represented as EC50; assay type: functional, cell-based; conditions: Homo sapiens
[8] = test system: CEM-SS; assay: Effective concentration to inhibit HIV replication in TK CEM-SS cell line; assay type: functional, cell-based; conditions: Homo sapiens
[9] = test system: CEM-SS; assay: Cytotoxic concentration to inhibit HIV replication in TK CEM-SS cell line; assay type: functional; conditions: Homo sapiens

half-life [1] [h]	half-life [2] [h]	half-life [3] [h]	logP [4]	pKa [5]	EC50 [8] [µM]	Compound	CC50 [6] [µM]	EC50 [7] [µM]	CC50 [9] [µM]
23	1.2	350	2.45	10.4	–	Cc1cn(C2CC(N=[N+]=[N-])C(COP(=O)(NC(C)(C)C)OCCSC(=O)C(C)(C)C)O2)c(=O)[nH]c1=O (centres undefined)	> 100	1.5	–
10	1.2	200	1.91	10.6	0.63	Cc1cn(C2CC(N=[N+]=[N-])C(COP(=O)(NC(C)C)OCCSC(=O)C(C)(C)C)O2)c(=O)[nH]c1=O (centres undefined)	–	–	> 100
29	1.3	165	2.67	10.6	–	CCCCNP(=O)(O)OCC1OC(n2cc(C)c(=O)[nH]c2=O)CC1N=[N+]=[N-] (centres undefined)	> 100	1.2	–
23	1.4	100	2.55	4.68	–	Cc1cn(C2CC(N=[N+]=[N-])C(COP(=O)(Nc3ccccc3)OCCSC(=O)C(C)(C)C)O2)c(=O)[nH]c1=O (centres undefined)	> 10	> 10	–
–	–	–	–	–	> 100	Cc1cn([C@H]2C[C@H](N=[N+]=[N-])[C@@H](CO)O2)c(=O)[nH]c1=O [ZIDOVUDINE]	–	–	> 100

Compound	half-life [1] [h]	half-life [2] [h]	half-life [3] [h]	logP [4]	pKa [5]	EC50 [8] [µM]	CC50 [6] [µM]	EC50 [7] [µM]	CC50 [9] [µM]
Cc1cn(C2CC(N=[N+]=[N-])C(COP(=O)(O)N3CCOCC3)O2)c(=O)[nH]c1=O (centres undefined)	23	2.1	385	1.86	8.36	–	> 100	2	–
CCCCN(CCCC)P(=O)(O)OCC1OC(n2cc(C)c(=O)[nH]c2=O)CC1N=[N+]=[N-] (centres undefined)	23	0.96	136	4	11.2	–	> 10	> 10	–
Cc1cn(C2CC(N=[N+]=[N-])C(COP(=O)(O)N3CCCCC3)O2)c(=O)[nH]c1=O (centres undefined)	–	1.2	–	2.77	11.1	–	> 100	5.2	–
